Source: patent publication US7414066B2, “Amide compounds and medications containing the same technical field” (Kowa Company Ltd., priority 1999, dated 2008)

melting point	Structure (SMILES)
118 to 120 °C	Cc1cc(SC(C)C)c(NC(=O)CCCCSc2nc3cccc(C(F)(F)F)c3o2)c(SC(C)C)n1 [Compound No. 1290, 5-(7-trifluoromethylbenzoxazol-2-ylthio)-N-[2,4-bis(isopropylthio)-6-methyl-3-pyridyl]pentanamide]
118 to 121 °C	Cc1cc(SC(C)C)c(NC(=O)CCCCCCSc2nc3ccccc3[nH]2)c(SC(C)C)n1 [Compound No. 866, 7-(benzoimidazol-2-ylthio)-N-[2,4-bis(isopropylthio)-6-methyl-3-pyridyl]heptanamide]
84 to 87 °C	CCSc1cc(C)nc(SCC)c1NC(=O)CCCCCCCCSc1nc2ccccc2o1 [compound 818, 9-(benzoxazol-2-ylthio)-N-[2,4-bis(ethylthio)-6-methyl-3-pyridyl]nonanamide]
84 to 86 °C	Cc1cc(SC(C)C)c(NC(=O)CCCCCSc2nc3ccccc3s2)c(SC(C)C)n1 [Compound No. 855, 6-(benzothiazol-2-ylthio)-N-[2,4-bis(isopropylthio)-6-methyl-3-pyridyl]hexanamide]
116 to 117 °C	Cc1cc(SC(C)C)c(NC(=O)CCCSc2nc3ccccc3s2)c(SC(C)C)n1 [Compound No. 853, 4-(benzothiazol-2-ylthio)-N-[2,4-bis(isopropylthio)-6-methyl-3-pyridyl]butanamide]
129 to 130 °C	Cc1cc(SC(C)C)c(NC(=O)CCCCSc2nc3ccccc3o2)c(SC(C)C)n1 [Compound No. 844, 5-(benzoxazol-2-ylthio)-N-[2,4-bis(isopropylthio)-6-methyl-3-pyridyl]pentanamide]
99 to 101 °C	Cc1cc(SC(C)C)c(NC(=O)CCCCCSc2nc3c(C)c(Cl)cc(C(C)C)c3o2)c(SC(C)C)n1 [Compound No. 1301, 6-(5-chloro-7-isopropyl-4-methylbenzoxazol-2-ylthio)-N-[2,4-bis(isopropylthio)-6-methyl-3-pyridyl]hexanamide]
91 to 92 °C	CSc1nccc(C)c1NC(=O)CCCCCCCCSc1nc2ccccc2o1 [compound 158, 9-(benzoxazol-2-ylthio)-N-(4-methyl-2-methylthio-3-pyridyl)nonanamide]
122 to 123 °C	CCSc1cc(C)nc(SCC)c1NC(=O)CCCCSc1nc2ccccc2o1 [Compound No. 814, 5-(benzoxazol-2-ylthio)-N-[2,4-bis(ethylthio)-6-methyl-3-pyridyl]pentanamide]
140 to 141 °C	CSc1nc(C)ccc1NC(=O)CCCCCSc1nc2ccccc2o1 [compound 455, 6-(benzoxazol-2-ylthio)-N-(6-methyl-2-methylthio-3-pyridyl)hexanamide]
76 to 78 °C	Cc1cc(SC(C)C)c(NC(=O)CCCCCCSc2nc3ccccc3o2)c(SC(C)C)n1 [Compound No. 846, 7-(benzoxazol-2-ylthio)-N-[2,4-bis(isopropylthio)-6-methyl-3-pyridyl]heptanamide]
107 to 109 °C	Cc1cc(SC(C)C)c(NC(=O)CCCCSc2nc3ccccc3s2)c(SC(C)C)n1 [Compound No. 854, 5-(benzothiazol-2-ylthio)-N-[2,4-bis(isopropylthio)-6-methyl-3-pyridyl]pentanamide]

The next lines start with the molecule.

Structure (SMILES)	melting point
CSc1cc(C)nc(SC)c1NC(=O)CCCCCCSc1nc2cccc(C(F)(F)F)c2o1 [Compound No. 1252, 7-(7-trifluoromethylbenzoxazol-2-ylthio)-N-[2,4-bis(methylthio)-6-methyl-3-pyridyl]heptanamide]	129 to 131 °C
CCSc1cc(C)nc(SCC)c1NC(=O)CCCCCCCCSc1nc2cccc(C(F)(F)F)c2o1 [Compound No. 1274, 9-(7-trifluoromethylbenzoxazol-2-ylthio)-N-[2,4-bis(ethylthio)-6-methyl-3-pyridyl]nonanamide]	115 to 116 °C
CCSc1cc(C)nc(SCC)c1NC(=O)CCCSc1nc2cccc(C(F)(F)F)c2o1 [Compound No. 1269, 4-(7-trifluoromethylbenzoxazol-2-ylthio)-N-[2,4-bis(ethylthio)-6-methyl-3-pyridyl]butanamide]	148 to 150 °C
CSc1cc(C)nc(SC)c1NC(=O)CCCCCCCSc1nc2cccc(C(F)(F)F)c2o1 [Compound No. 1253, 8-(7-trifluoromethylbenzoxazol-2-ylthio)-N-[2,4-bis(methylthio)-6-methyl-3-pyridyl]octanamide]	115 to 116 °C
CSc1cc(C)nc(SC)c1NC(=O)CCCCCSc1nc2ccccc2[nH]1 [compound 805, 6-(benzimidazol-2-ylthio)-N-[2,4-bis(methylthio)-6-methyl-3-pyridyl]hexanamide]	139 to 141 °C
CCSc1cc(C)nc(SCC)c1NC(=O)CCCCCCSc1nc2ccccc2s1 [Compound No. 826, 7-(benzothiazol-2-ylthio)-N-[2,4-bis(ethylthio)-6-methyl-3-pyridyl]heptanamide]	114 to 116 °C
CSc1nc(SC)c(NC(=O)CCCCCSc2nc3ccccc3o2)c(SC)n1 [Compound No. 1401, 6-(benzoxazol-2-ylthio)-N-[2,4,6-tris(methylthio)-5-pyrimidyl]hexanamide]	149 to 153 °C
CCSc1cc(C)nc(SCC)c1NC(=O)CSc1nc2ccccc2o1 [compound 811, 2-(benzoxazol-2-ylthio)-N-[2,4-bis(ethylthio)-6-methyl-3-pyridyl]acetamide]	143 to 145 °C
CSc1cc(C)nc(SC)c1NC(=O)CCCCSc1nc2ccccc2[nH]1 [Compound No. 804, 5-(benzimidazol-2-ylthio)-N-[2,4-bis(methylthio)-6-methyl-3-pyridyl]pentanamide]	176 to 177 °C
CSc1cc(C)nc(SC)c1NC(=O)CSc1nc2ccccc2o1 [compound 781, 2-(benzoxazol-2-ylthio)-N-[2,4-bis(methylthio)-6-methyl-3-pyridyl]acetamide]	203 to 205 °C
CSc1cc(C)nc(SC)c1NC(=O)CCCCCCCSc1nc2ccccc2[nH]1 [Compound No. 807, 8-(benzimidazol-2-ylthio)-N-[2,4-bis(methylthio)-6-methyl-3-pyridyl]octanamide]	186 to 187 °C
CSc1cc(C)nc(SC)c1NC(=O)CCCCSc1nc2cccc(C(F)(F)F)c2o1 [Compound No. 1250, 5-(7-trifluoromethylbenzoxazol-2-ylthio)-N-[2,4-bis(methylthio)-6-methyl-3-pyridyl]pentanamide]	179 to 180 °C
CSc1nc(C)ccc1NC(=O)CSc1nc2ccccc2s1 [Compound No. 461, 2-(benzothiazol-2-ylthio)-N-(6-methyl-2-methylthio-3-pyridyl)acetamide]	175 to 176 °C
CCSc1cc(C)nc(SCC)c1NC(=O)CSc1nc2ccccc2s1 [compound 821, 2-(benzothiazol-2-ylthio)-N-[2,4-bis(ethylthio)-6-methyl-3-pyridyl]acetamide]	119 to 120 °C
CSc1ncccc1NC(=O)CCCCCSc1nc2ccccc2[nH]1 [compound 25, 6-(benzimidazol-2-ylthio)-N-(2-methylthio-3-pyridyl)hexanamide]	121 to 123 °C
